The results in this text go back to patent US8236762B2, “Peptide-cytotoxic conjugates” (IPSEN Pharma S.A.S., priority 2006, dated 2012).

Series [1] can be described thus: Half-life determination in mouse plasma (LC-MS). Format: in vitro ADME. The note with it: 37° C. As for the experimental part:
(§1) Samples containing approximately 50 μg/ml up to and including approximately 500 μg/ml of test compound according to Formula IA or IB or II was added to 450 μl human or mouse plasma, vortexed briefly and incubated at 37° C. At various time intervals, e.g., 0, 0.5, 1, 2, 4, 6, 8, 24, 36 and 48 hours, 50 μl of the compound-plasma mixture was added to 150 μl acetonitrile in a microcentrifuge tube. The mixture was vortexed, centrifuged for 5 minutes at 10K RPM, and 135 μl of supernatant was transferred to an injection vial. The recovered supernatant was analyzed by using a liquid chromatography-mass spectrophotometer system (LC-MS) consisting of a Finnigan Deca XP® mass spectrometer with an ESI probe at the positive ion mode. HPLC separation was carried out on a Luna 3μ C8 (2)® 3×50 mm column with a gradient decreasing from 100% A to 80% B for 10 minutes at a flow rate of 0.25 ml/min. Buffer A was 0.1% acetic acid in water and buffer B was 0.1% acetic acid acetonitrile.

Series [2] can be described thus: Half-life determination in human plasma (LC-MS). Format: in vitro ADME. Particulars: 37° C. As for the experimental part: as §1
For series [3], the target named is T1, hSSTR-1 (Homo sapiens, UniProt P30872).
T1 construct: expressed in transfected cells; host or cells: CHO-K1
T1 sequence (P30872 whole entry): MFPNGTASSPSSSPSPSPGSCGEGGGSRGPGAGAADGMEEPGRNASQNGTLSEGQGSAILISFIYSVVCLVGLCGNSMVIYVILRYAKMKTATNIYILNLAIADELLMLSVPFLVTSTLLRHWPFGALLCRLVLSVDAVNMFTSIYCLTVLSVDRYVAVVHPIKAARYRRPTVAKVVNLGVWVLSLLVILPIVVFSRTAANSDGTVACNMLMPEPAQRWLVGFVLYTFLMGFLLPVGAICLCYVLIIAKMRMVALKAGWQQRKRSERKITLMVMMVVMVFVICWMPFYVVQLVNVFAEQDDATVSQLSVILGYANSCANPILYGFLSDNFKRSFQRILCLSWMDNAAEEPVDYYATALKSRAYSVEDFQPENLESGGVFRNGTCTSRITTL
Put plainly: Somatostatin receptor radioligand binding, hSSTR-1 (CHO-K1 membranes). Particulars: read-out: Ki hSSTR1 ± (SEM). As for the experimental part:
Membranes for in vitro receptor binding assays were obtained by homogenizing (Polytron setting 6, 15 sec) CHO-K1 cells expressing human somatostatin receptor subtypes hSSTR-1, hSSTR-2, hSSTR-3, hSSTR-4 or hSSTR-5 in ice-cold 50 mM Tris-HCl. The homogenized cells were centrifuged twice at 39,000 g for 10 minutes with an intermediate resuspension in fresh buffer. The final pellets were resuspended in 10 mM Tris-HCl to prepare the cell membrane homogenate for use in the binding assay.
The final assay volume was 0.3 ml.
The cell membrane homogenate was incubated with the radioligands for 90 minutes at 25° C. The incubations were terminated by rapid filtration through GF/C filters pre-soaked in 0.3% polyethylenimine using a Brandel® filtration manifold (Gaithersberg, Md., U.S.A.). Each tube and filter was washed three times with 5-ml aliquots of ice-cold buffer. Specific binding was defined as the total radioligand bound minus that bound in the presence of 1000 nM SRIF-14 (for hSSTR-1, hSSTR-3, hSSTR-4 or hSSTR-5), or 1000 nM DPhe-c(Cys-Tyr-D-Trp-Lys-Abu-Cys)-Thr-NH2 for hSSTR-2.

Series [4] addresses T2, hSSTR-3 (Homo sapiens, UniProt P32745).
T2 construct: expressed in transfected cells; host or cells: CHO-K1
As to the kind of experiment: Somatostatin receptor radioligand binding, hSSTR-3 (CHO-K1 membranes). The note with it: read-out: Ki hSSTR3 ± (SEM).
Method: (§2) For the hSSTR-1, hSSTR-3, and hSSTR-4 assays, aliquots of the membrane preparations were incubated for 90 minutes at 25° C. with 0.05 nM [^125I-Tyr11]SRIF-14 in 50 mM HEPES (pH 7.4) buffer containing 0.2% BSA and 5 mM MgCl2. The final assay volume was 0.3 ml. For the hSSTR-2 and hSSTR-5 assays, [^125I]-[4-(2-hydroxyethyl)]-1-piperazinylacetyl-D-Phe-c(Cys-Tyr-D-Trp-Lys-Abu-Cys)-Thr-NH2 (0.05 nM) and [^125I]-D-Phe-c(Cys-Tyr-D-Trp-Lys-Val-Cys)-Thr-NH2 were employed as the radioligands, respectively.

Series [5] addresses T3, hSSTR-4 (Homo sapiens, UniProt P31391).
T3 construct: expressed in transfected cells; host or cells: CHO-K1
Put plainly: Somatostatin receptor radioligand binding, hSSTR-4 (CHO-K1 membranes). Particulars: read-out: Ki hSSTR4 ± (SEM).
Method: as §2

In series [6] the target is T4, bombesin/GRP receptor (Rattus norvegicus, UniProt P52500).
T4 construct: AR42J rat pancreas cells expressing the native bombesin/GRP receptor; endogenous in cells; host or cells: AR42J rat pancreas cells
T4 sequence (P52500 whole entry): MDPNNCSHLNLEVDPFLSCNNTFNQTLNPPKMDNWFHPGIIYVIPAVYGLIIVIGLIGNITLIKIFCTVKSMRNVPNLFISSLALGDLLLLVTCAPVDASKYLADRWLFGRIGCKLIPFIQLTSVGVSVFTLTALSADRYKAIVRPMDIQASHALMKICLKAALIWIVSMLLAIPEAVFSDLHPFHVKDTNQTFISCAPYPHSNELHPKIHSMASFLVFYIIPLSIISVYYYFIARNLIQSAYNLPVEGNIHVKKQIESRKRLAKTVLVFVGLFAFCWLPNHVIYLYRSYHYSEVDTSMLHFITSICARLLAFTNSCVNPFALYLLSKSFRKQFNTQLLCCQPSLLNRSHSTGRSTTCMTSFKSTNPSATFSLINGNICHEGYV
As to the kind of experiment: Bombesin/GRP radioligand binding (AR42J rat pancreas cell membranes). The note with it: read-out: Ki bombesin receptor ± (SEM). As for the experimental part:
Membranes were prepared for radioligand binding studies by homogenization of AR42J rat pancreas cells expressing the native bombesin/GRP receptor in 20 ml of ice-cold 50 mM Tris-HCl with a Brinkman Polytron® (Westbury, N.Y., U.S.A.) at settings of 6, 15 seconds. The homogenates were washed twice by centrifugation (39,000 g/10 minutes) and the final pellets were resuspended in 50 mM Tris-HCl containing 2.5 mM MgCl2 and 0.1% BSA. […] The filters were then washed three times with 5-ml aliquots of ice-cold 50 mM Tris-HCl. The bound radioactivity trapped on the filters was counted by gamma spectrometry (Wallac LKB®, Gaithersburg, Md., U.S.A.).

[7] abbreviates: [125I-Tyr11]SRIF-14, value of 1000 indicates at least 1000.

pKi: −log10 of the molar value. Where two headings read alike, the source gives them in different places. Numbered stars: 1 amine (or outer) side, 2 acyl side, 3 side chain; on linkers, the order of the positions; unused ones are H or OH. Square brackets hold non-standard residues; d marks the D form. Peptide text beside a SMILES is read from it. * marks the point of attachment. Pipz(1-CH2CO,4-CH2CH2NH) = O=C(CN1CCN(CCN[*:1])CC1)[*:2]; X1 = CC[C@@]1(O*)C(=O)OCc2c1cc1n(c2=O)Cc2cc3ccccc3nc2-1; Suc = O=C(CCC(=O)[*:2])[*:1]; Nle = CCCC[C@H](N)C(=O)O; AEEA = NCCOCCOCC(=O)O; βAla = NCCC(=O)O Where only a bound is given, the exact number is not on record here.

T3 sequence (P31391 whole entry): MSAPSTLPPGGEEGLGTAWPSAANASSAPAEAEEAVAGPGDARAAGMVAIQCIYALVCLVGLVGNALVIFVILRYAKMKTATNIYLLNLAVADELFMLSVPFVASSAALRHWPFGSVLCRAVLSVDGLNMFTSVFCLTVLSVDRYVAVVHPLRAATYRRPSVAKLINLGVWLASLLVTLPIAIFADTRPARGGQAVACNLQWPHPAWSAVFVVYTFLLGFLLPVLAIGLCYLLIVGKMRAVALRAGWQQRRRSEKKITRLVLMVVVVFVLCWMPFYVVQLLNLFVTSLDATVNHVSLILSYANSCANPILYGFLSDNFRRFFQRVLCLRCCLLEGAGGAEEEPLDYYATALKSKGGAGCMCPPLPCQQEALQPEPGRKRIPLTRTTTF
T2 sequence (P32745 whole entry): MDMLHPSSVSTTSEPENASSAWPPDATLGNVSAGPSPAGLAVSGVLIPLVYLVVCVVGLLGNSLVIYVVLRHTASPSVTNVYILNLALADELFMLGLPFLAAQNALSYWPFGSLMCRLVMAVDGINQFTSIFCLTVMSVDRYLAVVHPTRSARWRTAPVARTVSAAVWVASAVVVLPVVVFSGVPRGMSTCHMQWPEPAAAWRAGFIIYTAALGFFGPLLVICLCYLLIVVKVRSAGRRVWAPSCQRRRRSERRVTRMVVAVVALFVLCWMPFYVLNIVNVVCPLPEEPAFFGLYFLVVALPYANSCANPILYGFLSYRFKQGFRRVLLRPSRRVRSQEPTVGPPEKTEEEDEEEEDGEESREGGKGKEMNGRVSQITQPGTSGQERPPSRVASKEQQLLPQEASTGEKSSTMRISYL

In general, half-life refers to the time needed for the level to fall by half in the phase considered. Higher therefore signals slow loss. What is called pKi is the Ki on a negative log10 scale, so that one unit is a factor of ten. As to `CC[C@@H]1NC(=O)[C@H](CCCCN)NC(=O)[C@@H](Cc2c[nH]c3ccccc23)NC(=O)[C@H](Cc2ccc(O)cc2)NC(=O)[C@@H](NC(=O)[C@@H](Cc2ccccc2)NC(=O)CN2CCN(CCNC(=O)COCCOCCNC(=O)COCCOCCNC(=O)COCCOCCNC(=O)COCCOCCNC(=O)CCC(=O)N[C@@H](CC3CCCCC3)C(=O)O[C@]3(CC)C(=O)OCc4c3cc3n(c4=O)Cc4cc5ccccc5nc4-3)CC2)CSSC[C@@H](C(=O)N[C@H](C(N)=O)[C@@H](C)O)NC1=O` [Example 1, Camptothecin-rvCha-Suc-(Doc)4-Aepa-DPhe-c(Cys-Tyr-DTrp-Lys-Abu-Cys)-Thr-NH2], the half-life in series [1] was 120 min; in series [2] it was 282 min. In addition, the figures for the pKi in series [3], in series [4] and in series [5] were at most 6.00, 6.81 and at most 6.00, respectively.
As to `CC[C@@H]1NC(=O)[C@H](CCCCN)NC(=O)[C@@H](Cc2c[nH]c3ccccc23)NC(=O)[C@H](Cc2ccc(O)cc2)NC(=O)[C@@H](NC(=O)[C@@H](Cc2ccccc2)NC(=O)CN2CCN(CCNC(=O)COCCOCCNC(=O)COCCOCCNC(=O)COCCOCCNC(=O)COCCOCCNC(=O)CCC(=O)N[C@@H](CCCNC(=N)N)C(=O)O[C@]3(CC)C(=O)OCc4c3cc3n(c4=O)Cc4cc5ccccc5nc4-3)CC2)CSSC[C@@H](C(=O)N[C@H](C(N)=O)[C@@H](C)O)NC1=O` [Example 7, Camptothecin-rvArg-Suc-(Doc)4-Aepa-D-Phe-c(Cys-Tyr-D-Trp-Lys-Abu-Cys)-Thr-NH2], the half-life in series [1] is 72 min; in series [2] it was 90 min. In addition, the negative logarithm of the Ki (pKi) in series [3] is at most 6.00; in series [4] it was 6.32; in series [5], at most 6.00.
As for `CC[C@@H]1NC(=O)[C@H](CCCCN)NC(=O)[C@@H](Cc2c[nH]c3ccccc23)NC(=O)[C@H](Cc2ccc(O)cc2)NC(=O)[C@@H](NC(=O)[C@@H](Cc2ccccc2)NC(=O)CN2CCN(CCNC(=O)COCCOCCNC(=O)COCCOCCNC(=O)COCCOCCNC(=O)COCCOCCNC(=O)CCC(=O)NCCCCC(=O)O[C@]3(CC)C(=O)OCc4c3cc3n(c4=O)Cc4cc5ccccc5nc4-3)CC2)CSSC[C@@H](C(=O)N[C@H](C(N)=O)[C@@H](C)O)NC1=O` [Example 11, Camptothecin-rvApn-Suc-(Doc)4-Aepa-D-Phe-c(Cys-Tyr-D-Trp-Lys-Abu-Cys)-Thr-NH2], the half-life in series [1] is 222 min; in series [2], 300 min. The pKi in series [3] and in series [5] was at most 6.00 throughout.
Regarding `CC[C@@H]1NC(=O)[C@H](CCCCN)NC(=O)[C@@H](Cc2c[nH]c3ccccc23)NC(=O)[C@H](Cc2ccc(O)cc2)NC(=O)[C@@H](NC(=O)[C@@H](Cc2ccccc2)NC(=O)CN2CCN(CCNC(=O)COCCOCCNC(=O)COCCOCCNC(=O)COCCOCCNC(=O)COCCOCCNC(=O)CCC(=O)N[C@@H](CC)C(=O)O[C@]3(CC)C(=O)OCc4c3cc3n(c4=O)Cc4cc5ccccc5nc4-3)CC2)CSSC[C@@H](C(=O)N[C@H](C(N)=O)[C@@H](C)O)NC1=O` [Example 12, Camptothecin-rvAbu-Suc-(Doc)4-Aepa-D-Phe-c(Cys-Tyr-D-Trp-Lys-Abu-Cys)-Thr-NH2], the results for the half-life in series [1] and in series [2] were 360 min and 42 min, respectively. The pKi in series [3] and in series [5] was at most 6.00 throughout.
As to `CC[C@@H]1NC(=O)[C@H](CCCCN)NC(=O)[C@@H](Cc2c[nH]c3ccccc23)NC(=O)[C@H](Cc2ccc(O)cc2)NC(=O)[C@@H](NC(=O)[C@@H](Cc2ccccc2)NC(=O)CN2CCN(CCNC(=O)COCCOCCNC(=O)COCCOCCNC(=O)COCCOCCNC(=O)COCCOCCNC(=O)CCC(=O)N[C@@H](C(=O)O[C@]3(CC)C(=O)OCc4c3cc3n(c4=O)Cc4cc5ccccc5nc4-3)C(C)C)CC2)CSSC[C@@H](C(=O)N[C@H](C(N)=O)[C@@H](C)O)NC1=O` [Example 13, Camptothecin-rvD-Val-Suc-(Doc)4-Aepa-D-Phe-c(Cys-Tyr-D-Trp-Lys-Abu-Cys)-Thr-NH2], the half-life is 462 min in series [1] and 18 min in series [2]. For the same compound, the pKi in series [3] and in series [5] was at most 6.00 throughout.
With `CC[C@@H]1NC(=O)[C@H](CCCCN)NC(=O)[C@@H](Cc2c[nH]c3ccccc23)NC(=O)[C@H](Cc2ccc(O)cc2)NC(=O)[C@@H](NC(=O)[C@@H](Cc2ccccc2)NC(=O)CN2CCN(CCNC(=O)COCCOCCNC(=O)COCCOCCNC(=O)COCCOCCNC(=O)COCCOCCNC(=O)CCC(=O)N[C@@H](C)C(=O)O[C@]3(CC)C(=O)OCc4c3cc3n(c4=O)Cc4cc5ccccc5nc4-3)CC2)CSSC[C@@H](C(=O)N[C@H](C(N)=O)[C@@H](C)O)NC1=O` [Example 14, Camptothecin-rvAla-Suc-(Doc)4-Aepa-D-Phe-c(Cys-Tyr-D-Trp-Lys-Abu-Cys)-Thr-NH2], the half-life in series [1] was 276 min; in series [2] it was 78 min. The pKi in series [3], in series [4] and in series [5] was at most 6.00 each time.
As for `CC[C@@H]1NC(=O)[C@H](CCCCN)NC(=O)[C@@H](Cc2c[nH]c3ccccc23)NC(=O)[C@H](Cc2ccc(O)cc2)NC(=O)[C@@H](NC(=O)[C@@H](Cc2ccccc2)NC(=O)CN2CCN(CCNC(=O)COCCOCCNC(=O)COCCOCCNC(=O)COCCOCCNC(=O)COCCOCCNC(=O)CCC(=O)N[C@H](C(=O)O[C@]3(CC)C(=O)OCc4c3cc3n(c4=O)Cc4cc5ccccc5nc4-3)C(C)C)CC2)CSSC[C@@H](C(=O)N[C@H](C(N)=O)[C@@H](C)O)NC1=O` [Example 15, Camptothecin-rvVal-Suc-(Doc)4-Aepa-D-Phe-c(Cys-Tyr-D-Trp-Lys-Abu-Cys)-Thr-NH2], the values for the half-life in series [1] and in series [2] were 300 min and 24 min, respectively. In addition, the pKi in series [3] and in series [5] was at most 6.00 in each case.
Take `CC[C@@H]1NC(=O)[C@H](CCCCN)NC(=O)[C@@H](Cc2c[nH]c3ccccc23)NC(=O)[C@H](Cc2ccc(O)cc2)NC(=O)[C@@H](NC(=O)[C@@H](Cc2ccccc2)NC(=O)CN2CCN(CCNC(=O)COCCOCCNC(=O)COCCOCCNC(=O)COCCOCCNC(=O)COCCOCCNC(=O)CCCC(=O)O[C@]3(CC)C(=O)OCc4c3cc3n(c4=O)Cc4cc5ccccc5nc4-3)CC2)CSSC[C@@H](C(=O)N[C@H](C(N)=O)[C@@H](C)O)NC1=O` [Example 16, Camptothecin-Glut-(Doc)4-Aepa-D-Phe-c(Cys-Tyr-D-Trp-Lys-Abu-Cys)-Thr-NH2]: the results for the half-life in series [1] and in series [2] were 252 min and 216 min, respectively. Besides, the pKi in series [3] and in series [5] was at most 6.00 each time.
In the case of `CCCC[C@H](NC(=O)[C@H](CC(C)C)NC(=O)[C@H](Cc1c[nH]cn1)NC(=O)CCNC(=O)[C@@H](NC(=O)[C@H](C)NC(=O)[C@H](Cc1c[nH]c2ccccc12)NC(=O)[C@H](CCC(N)=O)NC(=O)[C@H](CCCC)NC(=O)CN1CCN(CCNC(=O)COCCOCCNC(=O)COCCOCCNC(=O)COCCOCCNC(=O)COCCOCCNC(=O)CCC(=O)NCC(=O)O[C@]2(CC)C(=O)OCc3c2cc2n(c3=O)Cc3cc4ccccc4nc3-2)CC1)C(C)C)C(N)=O` [Example 20, Camptothecin-rvGly-Suc-(Doc)4-Aepa-Nle-Gln-Trp-Ala-Val-β-Ala-His-Leu-Nle-NH2] ({X1-Gly-Suc-AEEA-AEEA-AEEA-AEEA}-[Pipz(1-CH2CO,4-CH2CH2NH)][Nle]QWAV[βAla]HL[Nle]-NH2), the results for the half-life in series [1] and in series [2] were 168 min and 288 min, respectively. The pKi in series [6] is 8.34.
With “Camptothecin-rvD-Asp-Suc-(Doc)4-Aepa-D-Phe-c(Cys-Tyr-D-Trp-Lys-Abu-Cys)-Thr-NH2 Camptothecin-rvAsp-Suc-(Doc)4-Aepa-D-Phe-c(Cys-Tyr-D-Trp-Lys-Abu-Cys)-Thr-NH2 [5A′]”, the pKi in series [3] (setting [7]), in series [4] (setting [7]) and in series [5] (setting [7]) was at most 6.00 in each case.
